Some test systems named below: SN12C renal; NCI-H460 lung; OVCAR-5 ovarian; TK-10 renal; UACC-257 melanoma; SF-539 CNS; U251 CNS; M14 melanoma; HT29 colon; HCC-2998 colon.
Assay in all cases: NCI-60 cell line screen, 48 h

SMILES strings stand for the structures.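 Five compound concentrations were applied to cells in 96-well plates for 48 hours; endpoints were derived by simple linear interpolation of the resulting dose-response curve. At the GI50, growth is halved. TGI denotes the concentration required for complete inhibition of growth.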 Where only a bound is given, the exact number is not on record here.

With `COc1ccc2c(c1)CCC(CN1CCN(CCOC(c3ccc(F)cc3)c3ccc(F)cc3)CC1)C2O` (stereo not given), the TGI worked out at 34 µM in the assay with SN12C renal; 44.9 µM with NCI-H460 lung; 28.6 µM in the assay on OVCAR-5 ovarian; 29.7 µM in the assay on TK-10 renal; 28.1 µM in the assay with UACC-257 melanoma; 51.6 µM with SF-539 CNS. Also, the TGI in the assay on U251 CNS amounted to 26.1 µM; with M14 melanoma it was 25.5 µM; with HT29 colon, 18.4 µM; with HCC-2998 colon, 9.33 µM.
Consider `COc1ccc2[nH]c3c([N+](=O)[O-])ccc(Cl)c3c(=O)c2c1`, for which the TGI with SN12C renal is 55.1 µM; in the assay on NCI-H460 lung it was above 95.4 µM; with OVCAR-5 ovarian, above 58 µM; with TK-10 renal, above 56.6 µM; in the assay with UACC-257 melanoma it was 16.5 µM; with SF-539 CNS it was 34.2 µM. The TGI in the assay with U251 CNS was above 64.1 µM; in the assay on M14 melanoma it was 35.9 µM; in the assay on HT29 colon it was 32.2 µM; in the assay with HCC-2998 colon, above 71.2 µM.
Turning to `CC(C)(C)C1(c2ccc(C3(c4ccccc4)Oc4ccccc4S3)[nH]2)Oc2ccccc2S1` (stereo not given), the TGI with SN12C renal, with NCI-H460 lung, in the assay on OVCAR-5 ovarian, in the assay with TK-10 renal, in the assay on UACC-257 melanoma and in the assay with SF-539 CNS was above 100 µM each time. For the same compound, the TGI in the assay on U251 CNS, with M14 melanoma, with HT29 colon and in the assay with HCC-2998 colon was above 100 µM each time.
With `C=C1CC23CCC4C(C)(C(=O)O)CCCC4(C)C2CCC1C3` (stereo not given), the TGI with SN12C renal is above 100 µM; with NCI-H460 lung, 59.1 µM; in the assay with OVCAR-5 ovarian, above 100 µM; in the assay with TK-10 renal, above 100 µM; with UACC-257 melanoma, above 100 µM; in the assay on SF-539 CNS, above 100 µM. Also, the TGI is above 100 µM with U251 CNS, above 100 µM with M14 melanoma, above 100 µM in the assay with HT29 colon and 78.6 µM in the assay with HCC-2998 colon.
As for `Cc1ccc(P(c2ccc(C)cc2)c2ccc(C)cc2)cc1`, the TGI is 34.3 µM in the assay on SN12C renal; 36.5 µM in the assay on NCI-H460 lung; 61.1 µM with OVCAR-5 ovarian; above 100 µM in the assay with TK-10 renal; 59.3 µM in the assay on UACC-257 melanoma; 37.7 µM with SF-539 CNS. The TGI in the assay on U251 CNS is 43 µM; in the assay on M14 melanoma it was 50.3 µM; with HT29 colon, above 100 µM; in the assay on HCC-2998 colon, 36 µM.
For `COC1/C=C\OC2(C)Oc3c(C)c(O)c4c(O)c(c(/C=N\OCCCc5ccccc5)c(O)c4c3C2=O)NC(=O)/C(C)=C\C=C/C(C)C(O)C(C)C(O)C(C)C(OC(C)=O)C1C` (stereo not given), the TGI in the assay on SN12C renal was determined as 7.66 µM; in the assay with NCI-H460 lung, 15.6 µM; with OVCAR-5 ovarian it was 20.4 µM; in the assay with TK-10 renal, 8.47 µM; with UACC-257 melanoma, 18.6 µM; in the assay with SF-539 CNS, 7.3 µM. The TGI in the assay on U251 CNS is 16 µM; in the assay with M14 melanoma, 6.76 µM; with HT29 colon, 11.3 µM; with HCC-2998 colon, 25.6 µM.
For `O=Nc1ccc(O)c2ncccc12`, the TGI with SN12C renal is 25.2 µM; with NCI-H460 lung, 12.8 µM; in the assay on OVCAR-5 ovarian, 32.5 µM; in the assay on TK-10 renal it was 28.2 µM; in the assay with UACC-257 melanoma, 19.4 µM; in the assay on SF-539 CNS it was 4.96 µM. Further, the TGI came out at 14.5 µM with U251 CNS, 20.7 µM with M14 melanoma, 34.6 µM in the assay on HT29 colon and 31.1 µM with HCC-2998 colon.
With `C=C1C(=O)CCC1C(=O)O` (stereo not given), the TGI in the assay on SN12C renal, in the assay on NCI-H460 lung, in the assay on OVCAR-5 ovarian, in the assay on TK-10 renal, in the assay on UACC-257 melanoma and in the assay on SF-539 CNS was above 100 µM throughout. Besides, the TGI in the assay on U251 CNS, in the assay with M14 melanoma, in the assay with HT29 colon and in the assay with HCC-2998 colon was above 100 µM in each case.
For the compound `O=[N+]([O-])c1ccc(/C=N\Nc2ccc([N+](=O)[O-])cn2)cc1`, the TGI was above 100 µM in the assay with SN12C renal; above 100 µM in the assay on NCI-H460 lung; above 100 µM in the assay on OVCAR-5 ovarian; above 100 µM in the assay on TK-10 renal; above 100 µM in the assay with UACC-257 melanoma; 82.8 µM in the assay on SF-539 CNS. The TGI with U251 CNS, in the assay with M14 melanoma, in the assay on HT29 colon and in the assay on HCC-2998 colon was above 100 µM in each case.
Consider `CN1CCC(C(=O)NNc2ccccc2)CC1`, for which the TGI in the assay on SN12C renal is above 100 µM; in the assay with NCI-H460 lung it was above 100 µM; in the assay with OVCAR-5 ovarian, above 41.6 µM; in the assay with TK-10 renal it was above 89.2 µM; in the assay on UACC-257 melanoma, above 89.2 µM; in the assay on SF-539 CNS it was 32.6 µM. Further, the TGI in the assay with U251 CNS is above 100 µM; in the assay on M14 melanoma it was above 88.4 µM; with HT29 colon, above 100 µM; in the assay on HCC-2998 colon it was 12.6 µM.
On to `FC(F)(F)c1ccc2c(c1)nc(Cc1ccc(Cl)c(Cl)c1)n2CC1CCCN2CCCCC12` (stereo not given), for which the TGI amounted to 42.8 µM in the assay on SN12C renal; 52.4 µM in the assay with NCI-H460 lung; 46.2 µM in the assay on OVCAR-5 ovarian; 74.9 µM in the assay on TK-10 renal; 41 µM in the assay on UACC-257 melanoma; 40 µM with SF-539 CNS. Also, the TGI in the assay with U251 CNS is 59.7 µM; in the assay with M14 melanoma, 25.2 µM; in the assay with HT29 colon, 28.2 µM; in the assay on HCC-2998 colon, 22.5 µM.
As for `C=C(CN(C)C)C(=O)c1ccc(C)cc1C`, the TGI with SN12C renal turned out to be 33.4 µM; with NCI-H460 lung, 46.9 µM; in the assay with OVCAR-5 ovarian it was 31.1 µM; in the assay on TK-10 renal, 22.2 µM; with UACC-257 melanoma it was 24.8 µM; in the assay on SF-539 CNS, 30 µM. Also, the TGI with U251 CNS was determined as 47.8 µM; in the assay with M14 melanoma, 14.5 µM; with HT29 colon, 36.6 µM; in the assay with HCC-2998 colon, 31.5 µM.
On to `O=C(/C=c1\oc(=O)/c(=C/C(=O)c2ccc(Cl)cc2)oc1=O)c1ccc(Cl)cc1`, for which the TGI in the assay with SN12C renal, with NCI-H460 lung, in the assay on OVCAR-5 ovarian, with TK-10 renal, in the assay on UACC-257 melanoma and in the assay on SF-539 CNS was above 100 µM in each case. Moreover, the TGI in the assay on U251 CNS, with M14 melanoma, with HT29 colon and in the assay with HCC-2998 colon was above 100 µM throughout.
Take `C/C1=N\NC(=O)c2ccccc2C(=O)N/N=C(\C)c2cccc1n2.O=[N+]([O-])[O-].[Zn+2]`: the TGI with SN12C renal, in the assay on NCI-H460 lung, with OVCAR-5 ovarian, with TK-10 renal, in the assay on UACC-257 melanoma and with SF-539 CNS was above 100 µM each time. The TGI in the assay on U251 CNS, in the assay on M14 melanoma, in the assay with HT29 colon and in the assay with HCC-2998 colon was above 100 µM throughout.
As to `COc1ccc(-c2nn(-c3ccc(NC(=O)Nc4ccc(Cl)c(Cl)c4)cc3)cc2-c2ccncc2)cc1Cl`, the GI50 in the assay on SN12C renal is 2.6 µM; in the assay on NCI-H460 lung it was 2.14 µM; with OVCAR-5 ovarian, 2.8 µM; in the assay with TK-10 renal it was 2.04 µM; in the assay on UACC-257 melanoma it was 3.14 µM; with SF-539 CNS, 2.82 µM. Further, the GI50 with U251 CNS is 1.36 µM; with M14 melanoma, 1.79 µM; in the assay on HT29 colon, 2.55 µM; in the assay with HCC-2998 colon, 2.78 µM. Also, the TGI in the assay on SN12C renal is above 100 µM; with NCI-H460 lung, 8.54 µM; in the assay with OVCAR-5 ovarian, above 100 µM; in the assay on TK-10 renal, above 100 µM; with UACC-257 melanoma, 11.6 µM; in the assay on SF-539 CNS it was above 100 µM. In addition, the TGI in the assay with U251 CNS is above 100 µM; in the assay with M14 melanoma, 5.04 µM; with HT29 colon, above 100 µM; in the assay with HCC-2998 colon, above 100 µM.
As for `c1ccc(-n2cnnc2-c2nsc3ccccc23)cc1`, the TGI in the assay on SN12C renal, in the assay with NCI-H460 lung, in the assay on OVCAR-5 ovarian, in the assay on TK-10 renal, with UACC-257 melanoma and in the assay on SF-539 CNS was above 100 µM in each case. Moreover, the TGI with U251 CNS, with M14 melanoma, in the assay with HT29 colon and with HCC-2998 colon was above 100 µM each time.

Values taken from PubChem BioAssay (NCI).
